Literature values in patent publication US4978531A, “Clebopride transdermal patch” (Fordonal, S.A., priority 1987, dated 1990).

Conditions: in vivo

biological half-life: about 1.5 hours
SMILES: COc1cc(N)c(Cl)cc1C(=O)NC1CCN(Cc2ccccc2)CC1 [clebopride]
